Measurements as given in ChEMBL document CHEMBL6115000, “Discovery of a first-in-class PROTAC degrader of histone lysine demethylase KDM4” (Eur J Med Chem, 2025).
Activity calls are given as the source filed them. The calls are words filed in the database; no cut-off is given here.

How the values were obtained:
[1] = Induction of cell cycle arrest in human KYSE-150 cells assessed as accumulation of cells at G0/G1 phase at 333.3 nM incubated for 24 hrs by flow cytometry (reference value: 65.08 %); type: functional
[2] = Induction of apoptosis in human KYSE-150 cells assessed as necrotic cells at 111.1 nM incubated for 72 hrs by Annexin V-PE/7-AAD staining based flow cytometry (reference value: 4.28 %); type: functional
[3] = target: T1, von Hippel-Lindau disease tumor suppressor/Lysine-specific demethylase 4B (Homo sapiens, UniProt P40337+O94953); assay: PROTAC activity at VHL/KDM4B in human KYSE-150 cells assessed as induction of KDM4B degradation upto 1000 nM by Western blot analysis; type: cell-based; settings: KYSE-150 cell line
T1 sequence (O94953 whole entry, looked up): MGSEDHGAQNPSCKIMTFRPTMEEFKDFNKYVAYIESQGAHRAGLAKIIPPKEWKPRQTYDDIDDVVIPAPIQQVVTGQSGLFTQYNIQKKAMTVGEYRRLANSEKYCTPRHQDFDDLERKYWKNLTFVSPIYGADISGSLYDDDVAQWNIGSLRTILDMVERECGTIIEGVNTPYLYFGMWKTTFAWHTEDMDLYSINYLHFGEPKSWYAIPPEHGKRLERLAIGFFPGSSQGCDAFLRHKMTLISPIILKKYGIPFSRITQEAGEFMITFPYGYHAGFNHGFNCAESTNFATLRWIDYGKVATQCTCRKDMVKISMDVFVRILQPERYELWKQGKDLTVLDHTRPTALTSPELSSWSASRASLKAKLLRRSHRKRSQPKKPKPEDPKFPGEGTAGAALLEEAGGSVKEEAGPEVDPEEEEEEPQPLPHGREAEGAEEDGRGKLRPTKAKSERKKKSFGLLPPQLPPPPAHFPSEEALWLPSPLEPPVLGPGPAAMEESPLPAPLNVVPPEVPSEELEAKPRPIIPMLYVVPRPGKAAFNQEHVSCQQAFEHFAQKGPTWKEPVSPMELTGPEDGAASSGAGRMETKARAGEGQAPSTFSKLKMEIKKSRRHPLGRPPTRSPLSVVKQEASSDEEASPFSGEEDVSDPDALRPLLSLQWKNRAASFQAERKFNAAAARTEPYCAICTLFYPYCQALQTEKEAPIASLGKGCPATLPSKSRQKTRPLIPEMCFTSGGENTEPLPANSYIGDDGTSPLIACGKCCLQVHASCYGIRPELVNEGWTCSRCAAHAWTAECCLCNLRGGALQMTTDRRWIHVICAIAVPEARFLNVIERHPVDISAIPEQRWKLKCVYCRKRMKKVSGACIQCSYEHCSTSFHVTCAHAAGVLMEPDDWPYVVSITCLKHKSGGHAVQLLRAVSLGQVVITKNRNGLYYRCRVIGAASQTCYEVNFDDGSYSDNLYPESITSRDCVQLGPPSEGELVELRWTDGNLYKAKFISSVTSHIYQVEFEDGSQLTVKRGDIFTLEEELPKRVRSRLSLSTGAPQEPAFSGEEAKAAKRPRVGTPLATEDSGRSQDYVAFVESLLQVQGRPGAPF
T1 sequence (P40337 whole entry, looked up): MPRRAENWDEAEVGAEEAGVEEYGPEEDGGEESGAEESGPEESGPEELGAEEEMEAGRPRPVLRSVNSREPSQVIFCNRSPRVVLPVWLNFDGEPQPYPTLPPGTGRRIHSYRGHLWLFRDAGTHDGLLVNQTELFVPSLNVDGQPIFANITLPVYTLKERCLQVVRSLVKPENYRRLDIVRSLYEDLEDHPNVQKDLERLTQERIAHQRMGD

[4] = Induction of cell cycle arrest in human KYSE-150 cells assessed as accumulation of cells at G2/M phase at 333.3 nM incubated for 24 hrs by flow cytometry (reference value: 21.64 %); type: functional
[5] = Induction of apoptosis in human KYSE-150 cells assessed as early apoptotic cells at 1000 nM incubated for 72 hrs by Annexin V-PE/7-AAD staining based flow cytometry (reference value: 5.27 %); type: functional
[6] = Induction of apoptosis in human KYSE-150 cells assessed as late apoptotic cells at 1000 nM incubated for 72 hrs by Annexin V-PE/7-AAD staining based flow cytometry (reference value: 5.98 %); type: functional
[7] = Induction of cell cycle arrest in human KYSE-150 cells assessed as accumulation of cells at G0/G1 phase at 1000 nM incubated for 24 hrs by flow cytometry (reference value: 65.08 %); type: functional
[8] = Induction of apoptosis in human KYSE-150 cells assessed as early apoptotic cells at 111.1 nM incubated for 72 hrs by Annexin V-PE/7-AAD staining based flow cytometry (reference value: 5.27 %); type: functional
[9] = target: von Hippel-Lindau disease tumor suppressor/Lysine-specific demethylase 4C (Homo sapiens, UniProt Q9H3R0+P40337); assay: PROTAC activity at VHL/KDM4C in human KYSE-150 cells assessed as induction of KDM4C degradation measured after 24 hrs by Western blot analysis; type: cell-based
[10] = Induction of apoptosis in human KYSE-150 cells assessed as necrotic cells at 12.3 nM incubated for 72 hrs by Annexin V-PE/7-AAD staining based flow cytometry (reference value: 4.28 %); type: functional
[11] = Induction of cell cycle arrest in human KYSE-150 cells assessed as accumulation of cells at G2/M phase at 37 nM incubated for 24 hrs by flow cytometry (reference value: 21.64 %); type: functional
[12] = Induction of cell cycle arrest in human KYSE-150 cells assessed as accumulation of cells at G0/G1 phase at 37 nM incubated for 24 hrs by flow cytometry (reference value: 65.08 %); type: functional
[13] = Induction of cell cycle arrest in human KYSE-150 cells assessed as accumulation of cells at S pahse at 1000 nM incubated for 24 hrs by flow cytometry (reference value: 13.15 %); type: functional
[14] = Induction of cell cycle arrest in human KYSE-150 cells assessed as accumulation of cells at S pahse at 333.3 nM incubated for 24 hrs by flow cytometry (reference value: 13.15 %); type: functional
[15] = Induction of apoptosis in human KYSE-150 cells assessed as viable cells at 37 nM incubated for 72 hrs by Annexin V-PE/7-AAD staining based flow cytometry (reference value: 84.47 %); type: functional; settings: read-out: Activity
[16] = Induction of cell cycle arrest in human KYSE-150 cells assessed as accumulation of cells at S pahse at 37 nM incubated for 24 hrs by flow cytometry (reference value: 13.15 %); type: functional
[17] = Induction of apoptosis in human KYSE-150 cells assessed as viable cells at 111.1 nM incubated for 72 hrs by Annexin V-PE/7-AAD staining based flow cytometry (reference value: 84.47 %); type: functional; settings: read-out: Activity
[18] = Induction of cell cycle arrest in human KYSE-150 cells assessed as accumulation of cells at G2/M phase at 12.3 nM incubated for 24 hrs by flow cytometry (reference value: 21.64 %); type: functional
[19] = target: T2, von Hippel-Lindau disease tumor suppressor/Lysine-specific demethylase 4A (Homo sapiens, UniProt O75164+P40337); assay: PROTAC activity at VHL/KDM4A in human KYSE-150 cells assessed as induction of KDM4A degradation measured after 24 hrs by Western blot analysis; type: cell-based
[20] = target: T2, von Hippel-Lindau disease tumor suppressor/Lysine-specific demethylase 4A; assay: PROTAC activity at VHL/KDM4A in human KYSE-150 cells assessed as fold increase in H3K36me3 level at 1000 nM incubated for 24 hrs by Western blot analysis relative to control; type: cell-based; settings: KYSE-150 cell line
Target sequence in this assay (O75164 2-1064 limits assumed): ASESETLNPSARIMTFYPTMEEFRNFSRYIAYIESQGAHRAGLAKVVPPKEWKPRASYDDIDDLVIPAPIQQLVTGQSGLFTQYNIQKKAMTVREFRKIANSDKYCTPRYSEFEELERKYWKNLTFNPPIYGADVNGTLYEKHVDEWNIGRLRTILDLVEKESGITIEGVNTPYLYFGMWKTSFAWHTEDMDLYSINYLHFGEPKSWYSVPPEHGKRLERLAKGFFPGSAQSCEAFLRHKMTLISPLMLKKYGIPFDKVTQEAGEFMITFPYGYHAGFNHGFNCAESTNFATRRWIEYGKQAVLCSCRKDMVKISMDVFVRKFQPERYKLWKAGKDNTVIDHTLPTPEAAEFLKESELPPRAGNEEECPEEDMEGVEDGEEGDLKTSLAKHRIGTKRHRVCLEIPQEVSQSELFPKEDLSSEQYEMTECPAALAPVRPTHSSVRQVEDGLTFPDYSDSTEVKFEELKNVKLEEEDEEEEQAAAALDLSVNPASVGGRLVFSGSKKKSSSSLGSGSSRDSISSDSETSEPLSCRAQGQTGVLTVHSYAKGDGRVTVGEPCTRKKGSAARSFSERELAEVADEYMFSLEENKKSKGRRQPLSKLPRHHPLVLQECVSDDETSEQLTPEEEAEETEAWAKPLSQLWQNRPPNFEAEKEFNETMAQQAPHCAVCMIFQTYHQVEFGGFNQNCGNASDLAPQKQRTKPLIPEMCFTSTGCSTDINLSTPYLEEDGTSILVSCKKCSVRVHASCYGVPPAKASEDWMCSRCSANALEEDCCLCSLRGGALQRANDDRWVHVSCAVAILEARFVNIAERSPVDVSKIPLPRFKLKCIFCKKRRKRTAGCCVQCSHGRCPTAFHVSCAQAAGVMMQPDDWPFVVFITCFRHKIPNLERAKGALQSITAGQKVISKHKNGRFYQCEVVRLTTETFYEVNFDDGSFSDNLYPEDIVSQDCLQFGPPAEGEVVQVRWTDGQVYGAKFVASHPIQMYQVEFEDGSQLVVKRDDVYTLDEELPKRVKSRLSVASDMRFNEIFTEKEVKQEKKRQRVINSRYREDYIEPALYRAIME
Target sequence in this assay (P40337 whole entry partner): as the sequence (P40337 whole entry, looked up) above

[21] = target: T2, von Hippel-Lindau disease tumor suppressor/Lysine-specific demethylase 4A; assay: PROTAC activity at VHL/KDM4A in human KYSE-150 cells assessed as induction of KDM4A degradation at 50 nM incubated for 24 hrs in presence of bortezomib by Western blot analysis; type: cell-based; settings: KYSE-150 cell line
Target sequence in this assay (O75164 2-1064 limits assumed): as the sequence (O75164 2-1064 limits assumed) above
Target sequence in this assay (P40337 whole entry partner): as the sequence (P40337 whole entry, looked up) above

[22] = target: T2, von Hippel-Lindau disease tumor suppressor/Lysine-specific demethylase 4A; assay: PROTAC activity at VHL/KDM4A in human KYSE-150 cells assessed as induction of KDM4A degradation at 50 nM incubated for 24 hrs in presence of MLN4924 by Western blot analysis; type: cell-based; settings: KYSE-150 cell line
Target sequence in this assay (O75164 2-1064 limits assumed): as the sequence (O75164 2-1064 limits assumed) above
Target sequence in this assay (P40337 whole entry partner): as the sequence (P40337 whole entry, looked up) above

[23] = Induction of apoptosis in human KYSE-150 cells assessed as necrotic cells at 1000 nM incubated for 72 hrs by Annexin V-PE/7-AAD staining based flow cytometry (reference value: 4.28 %); type: functional
[24] = target: T1, von Hippel-Lindau disease tumor suppressor/Lysine-specific demethylase 4B; assay: PROTAC activity at VHL/KDM4B in human KYSE-150 cells assessed as induction of KDM4B degradation upto 1000 nM measured after 24 hrs by Western blot analysis relative to control; type: cell-based; settings: KYSE-150 cell line
[25] = Induction of apoptosis in human KYSE-150 cells assessed as viable cells at 333.3 nM incubated for 72 hrs by Annexin V-PE/7-AAD staining based flow cytometry (reference value: 84.47 %); type: functional; settings: read-out: Activity
[26] = Induction of cell cycle arrest in human KYSE-150 cells assessed as accumulation of cells at G0/G1 phase at 111.1 nM incubated for 24 hrs by flow cytometry (reference value: 65.08 %); type: functional
[27] = Induction of apoptosis in human KYSE-150 cells assessed as viable cells at 1000 nM incubated for 72 hrs by Annexin V-PE/7-AAD staining based flow cytometry (reference value: 84.47 %); type: functional; settings: read-out: Activity
[28] = Induction of apoptosis in human KYSE-150 cells assessed as viable cells at 12.3 nM incubated for 72 hrs by Annexin V-PE/7-AAD staining based flow cytometry (reference value: 84.47 %); type: functional; settings: read-out: Activity
[29] = Induction of apoptosis in human KYSE-150 cells assessed as late apoptotic cells at 111.1 nM incubated for 72 hrs by Annexin V-PE/7-AAD staining based flow cytometry (reference value: 5.98 %); type: functional
[30] = target: T2, von Hippel-Lindau disease tumor suppressor/Lysine-specific demethylase 4A; assay: PROTAC activity at VHL/KDM4A in human KYSE-150 cells assessed as increase in KDM4A ubiquitination at 50 nM incubated for 24 hrs by Western blot analysis; type: cell-based; settings: KYSE-150 cell line
Target sequence in this assay (O75164 2-1064 limits assumed): as the sequence (O75164 2-1064 limits assumed) above
Target sequence in this assay (P40337 whole entry partner): as the sequence (P40337 whole entry, looked up) above

- Activity [3]: Time-dependent-effect
- Activity ([9]; KYSE-150 cell line): Dose-dependent-effect
- DC50 ([9]; kyse-150 cell line): 49.4 nM
- Activity ([19]; KYSE-150 cell line): Dose-dependent-effect
- DC50 ([19]; kyse-150 cell line): 37.5 nM
- FC [20]: 2
- Activity [21]: inactive
- Activity [22]: inactive
- Emax [24]: 73.1%
- Activity [30]: Active
Structure (SMILES): Cc1ncsc1-c1ccc([C@H](C)NC(=O)[C@@H]2C[C@@H](O)CN2C(=O)[C@@H](NC(=O)CCCCCCCCCOc2ccc(N(C)c3ccc4c(c3)OCC[C@H]4CNc3cnccc3C(=O)O)cc2)C(C)(C)C)cc1
- Activity [1]: 72.82%
- Activity [2]: 5.52%
- Activity [4]: 13.01%
- Activity [5]: 29.18%
- Activity [6]: 47.86%
- Activity [7]: 74.74%
- Activity [8]: 22.13%
- Activity [10]: 6.02%
- Activity [11]: 13.29%
- Activity [12]: 71.68%
- Activity [13]: 13.1%
- Activity [14]: 14.06%
- viability at 0.037 µM [15]: 30.6%
- Activity [16]: 14.84%
- viability at 0.1111 µM [17]: 18.2%
- Activity [18]: 16.31%
- Activity [23]: 5.01%
- viability at 0.3333 µM [25]: 19.5%
- Activity [26]: 73.05%
- viability at 1 µM [27]: 17.9%
- viability at 0.0123 µM [28]: 64.4%
- Activity [29]: 54.12%
